# Results taken from US20130053305A1, “PEPTIDE COMPOUNDS THAT CAN BE USED AS ANTIBACTERIAL AGENTS” (UNIVERSIDAD DE BARCELONA, priority 2010, published 2013).
# Read-outs that look alike come from different tables or passages of the source. Positions of bridges follow the written chain, without caps; N, C: chain ends. Non-standard residues stand in square brackets, D forms with d. Residues, ends and D or L forms follow the SMILES beside them. *: point of attachment. Nonanoyl = CCCCCCCCC(=O)*; X1 = CC[C@H](C)CCCCC(=O)*; Dab = NCC[C@H](N)C(=O)O
# Experiments:
# [1] = system: Staphylococcus aureus ATCC 6538; type: cell-based
# Procedure: (§1) The antibacterial activity of the lipopeptides was measured in sterile 96-well plates (Corning Costar 3598 microtiter plates). Samples of a final volume of 200 μL were prepared as follows: aliquots (100 μL) of a suspension containing bacteria at a concentration of 10^5 colony-forming units/mL in culture medium (MH, Muller Hinton Broth, Difco, USA), adjusted at pH 7.4, were added to 100 μL of solution containing the peptide prepared from a stock solution of 1 mg/mL peptide in water in serial 2-fold dilutions in MH broth adjusted to pH 7.4 (Jorgensen and Turnide, 2003).
# (§2) Inhibition of bacterial growth was determined by measuring the absorbance at 492 nm with a Absorbance Microplate reader ELx 800 (Bio-tek Instruments) after an incubation of 24-48 h at 37° C. Antibacterial activities are expressed as the MIC, the concentration at which no growth is observed after 24-48 h of incubation.
# (§3) Microorganisms were cultured on Tryptycase Soy Broth (Pronadisa, Barcelona) and incubated at 37° C. until bacterial growth was observed. Then a loopful was streaked on Trypticase Soy Agar (Pronadisa, Barcelona) and incubated at 37° C. until colony formation occurred. Microorganisms were preserved on cryobilles (EAS laboratoire, France) at −20° C.
# (§4) Bacterial strains used for the antibacterial activity tests were obtained from the American Type Culture Collection (ATCC, Rockville, Md., USA): […]
# [2] = system: Mycobacterium phlei ATCC 41423; type: cell-based
# Procedure: as §1, §2, §3, §4
# [3] = system: Acinetobacter sp ATCC 5798; type: cell-based
# Procedure: as §1, §2, §3
# (§5) Bacterial strains used for the antibacterial activity tests were obtained from the American Type Culture Collection (ATCC, Rockville, Md., USA):
# Acinetobacter sp ATCC 5798
# [4] = system: Microccous luteus ATCC 9341; type: cell-based, Micrococcus luteus
# Procedure: as §1, §2, §3, §4
# [5] = system: Escherichia coli ATCC 8739; type: cell-based
# Procedure: as §1, §2, §3, §5
# (§6) Escherichia coli ATCC 8739 Pseudomonas aeruginosa ATCC 9027 Salmonella typhimurium ATCC 14028
# [6] = system: Salmonella typhimurium ATCC 14028; type: cell-based
# Procedure: as §1, §2, §3, §5, §6
# [7] = system: Pseudomonas aeruginosa ATCC 9027; type: cell-based
# Procedure: as §1, §2, §3, §5, §6
# Gram positive bacteria = assay: Antibacterial test, summary for Gram positive bacteria; type: cell-based; conditions: summary in words
# Procedure: as §1, §2, §3, §4
# [8] = MH broth pH 7.4, 24-48 h at 37° C.
# [9] = Table 1 values displayed in micromolar units
# [10] = Table 2 values displayed in micromolar units
MIC Staphylococcus aureus ([1]; ATCC 6538) [µM],"MIC Staphylococcus aureus [1, 8] [µg/mL]",MIC Micobacterium phlei ([2]; ATCC 41423) [µM],"MIC Micobacterium phlei ([2]; ATCC 41423, pH 7.4) [µg/mL]",MIC Acinetobacter sp ATCC 5798 ([3]; ATCC 5798) [µM],"MIC Acinetobacter sp ATCC 5798 [3, 8] [µg/mL]",MIC Micrococcus luteus ([4]; ATCC 9341) [µM],"MIC Micrococcus luteus [4, 8] [µg/mL]",MIC Escherichia coli 8739 ([5]; ATCC 8739) [µM],"MIC Escherichia coli 8739 [5, 8] [µg/mL]",MIC Salmonella typhimurium 14028 ([6]; ATCC 14028) [µM],"MIC Salmonella typhimurium 14028 [6, 8] [µg/mL]",MIC Pseudomonas aeruginosa 9027 ([7]; ATCC 9027) [µM],"MIC Pseudomonas aeruginosa 9027 [7, 8] [µg/mL]","MIC Pseudomonas aeruginosa 9027 ([7]; ATCC 9027, pH 7.4) [µg/mL]","MIC Salmonella typhimurium 14028 ([6]; ATCC 14028, pH 7.4) [µg/mL]",Compound,"MIC Micobacterium phlei [2, 8] [µg/mL]",other results
11.98,16,5.99 to 11.98,8 to 16,11.98,16,5.99,8,5.99,8,11.98,16,2.99,4,,,"CCCCCCCCC(=O)N[C@@H](CCCNC(=N)N)C(=O)N[C@H](C(=O)N[C@@H](CCN)C(=O)N[C@H]1CSSC[C@H](C(N)=O)NC(=O)[C@H](CCN)NC(=O)[C@H](CCCNC(=N)N)NC(=O)[C@H](CC(C)C)NC(=O)[C@@H](Cc2ccccc2)NC(=O)[C@H](CCN)NC1=O)[C@@H](C)O [(Ib13), nonanoyl-Arg-Thr-Dab-cyclo(S—S)[Cys-Dab-DPhe-Leu-Arg-Dab-DCys]] (Nonanoyl-RT[Dab]C[Dab][dF]LR[Dab][dC]-NH2; disulfide 4-10)",,
6.06,16,6.06,,1.51,4,3.03 to 6.06,,6.06,16,6.06,16,>12.12,,>32,,CCCCCCCCC(=O)N[C@@H](CCCNC(=N)N)C(=O)N[C@H](C(=O)N[C@@H](CCN)C(=O)N[C@H]1CSSC[C@@H](C(=O)NCC(=O)N[C@@H](CCCNC(=N)N)C(=O)N[C@H](C(=O)N[C@@H](CCC(=O)O)C(=O)N[C@H](C(=O)N[C@@H](CC(C)C)C(=O)N[C@@H](Cc2ccc(O)cc2)C(=O)N[C@@H](CCCNC(=N)N)C(=O)NCC(=O)N[C@@H](CO)C(=O)N[C@@H](Cc2c[nH]c3ccccc23)C(N)=O)C(C)C)C(C)C)NC(=O)[C@H](CCN)NC(=O)[C@H](CCCNC(=N)N)NC(=O)[C@H](CC(C)C)NC(=O)[C@@H](Cc2ccccc2)NC(=O)[C@H](CCN)NC1=O)[C@@H](C)O [(Ib3)] (Nonanoyl-RT[Dab]C[Dab][dF]LR[Dab]CGRVEVLYRGSW-NH2; disulfide 4-10),16,"MIC Micrococcus luteus ([4]; ATCC 9341, pH 7.4): 8 to 16 µg/mL"
24.32,32,6.08 to 12.16,8 to 16,6.08,8,12.16,16,3.04,4,6.08 to 12.16,,3.04,4,,8 to 16,"CCCCCCCCC(=O)N[C@@H](CCCNC(=N)N)C(=O)N[C@H](C(=O)N[C@@H](CCN)C(=O)N[C@H]1CCNC(=O)[C@H]([C@@H](C)O)NC(=O)[C@H](CCN)NC(=O)[C@H](CCCNC(=N)N)NC(=O)[C@H](CC(C)C)NC(=O)[C@@H](Cc2ccccc2)NC(=O)[C@H](CCN)NC1=O)[C@@H](C)O [(Ia1), nonanoyl-Arg-Thr-Dab-cyclo(4-10)[Dab-Dab-DPhe-Leu-Arg-Dab-Thr]] (Nonanoyl-RT[Dab][Dab][Dab][dF]LR[Dab]T; lactam 4-C)",,
7.28,16,>14.56,>32,3.64 to 7.28,,3.64,8,>14.56,,>14.56,,>14.56,,>32,>32,"CCCCCCCCC(=O)N[C@@H](CCCNC(=N)N)C(=O)N[C@H](C(=O)N[C@@H](CCN)C(=O)N[C@H]1CSSC[C@@H](C(=O)N[C@@H](CC(C)C)C(=O)N[C@@H](CCSC)C(=O)N[C@@H](Cc2c[nH]c3ccccc23)C(=O)N[C@@H](Cc2c[nH]c3ccccc23)C(=O)N[C@@H](CCSC)C(=O)N[C@@H](CC(C)C)C(N)=O)NC(=O)[C@H](CCN)NC(=O)[C@H](CCCNC(=N)N)NC(=O)[C@H](CC(C)C)NC(=O)[C@@H](Cc2ccccc2)NC(=O)[C@H](CCN)NC1=O)[C@@H](C)O [(Ib6), nonanoyl-Arg-Thr-Dab-cyclo(S—S)[Cys-Dab-DPhe-Leu-Arg-Dab-Cys]-Leu-Met-Trp-Trp-Met-Leu] (Nonanoyl-RT[Dab]C[Dab][dF]LR[Dab]CLMWWML-NH2; disulfide 4-10)",,"MIC Acinetobacter sp ATCC 5798 ([3]; ATCC 5798, pH 7.4): 8 to 16 µg/mL; MIC Escherichia coli 8739 ([5]; ATCC 8739, pH 7.4): >32 µg/mL"

Compound,MIC Staphylococcus aureus ([1]; ATCC 6538) [µM],"MIC Staphylococcus aureus [1, 8] [µg/mL]",MIC Micobacterium phlei ([2]; ATCC 41423) [µM],"MIC Micobacterium phlei ([2]; ATCC 41423, pH 7.4) [µg/mL]",MIC Acinetobacter sp ATCC 5798 ([3]; ATCC 5798) [µM],"MIC Acinetobacter sp ATCC 5798 [3, 8] [µg/mL]",MIC Micrococcus luteus ([4]; ATCC 9341) [µM],"MIC Micrococcus luteus [4, 8] [µg/mL]",MIC Escherichia coli 8739 ([5]; ATCC 8739) [µM],"MIC Escherichia coli 8739 [5, 8] [µg/mL]",MIC Salmonella typhimurium 14028 ([6]; ATCC 14028) [µM],"MIC Salmonella typhimurium 14028 [6, 8] [µg/mL]",MIC Pseudomonas aeruginosa 9027 ([7]; ATCC 9027) [µM],"MIC Pseudomonas aeruginosa 9027 [7, 8] [µg/mL]","MIC Pseudomonas aeruginosa 9027 ([7]; ATCC 9027, pH 7.4) [µg/mL]","MIC Salmonella typhimurium 14028 ([6]; ATCC 14028, pH 7.4) [µg/mL]","MIC Micobacterium phlei [2, 8] [µg/mL]",other results
"CC[C@H](C)CCCCC(=O)N[C@@H](CCN)C(=O)N[C@H](C(=O)N[C@@H](CCN)C(=O)N[C@H]1CCNC(=O)[C@H]([C@@H](C)O)NC(=O)[C@H](CCN)NC(=O)[C@H](CCN)NC(=O)[C@H](CC(C)C)NC(=O)[C@@H](Cc2ccccc2)NC(=O)[C@H](CCN)NC1=O)[C@@H](C)O [PxB, (S)-6-methyloctanoyl-Dab-Thr-Dab-cyclo(4-10)[Dab-Dab-DPhe-Leu-Dab-Dab-Thr], reference compound] (X1-[Dab]T[Dab][Dab][Dab][dF]L[Dab][Dab]T; lactam 4-C)",,>32,,,,0.5,,32,,1 to 2,,1,,2,,,32,"MIC Staphylococcus aureus [1, 9]: >26.90 µM; MIC Micobacterium phlei [2, 9]: 26.90 µM; MIC Acinetobacter sp ATCC 5798 [3, 10]: 0.42 µM; MIC Micrococcus luteus [4, 9]: 26.90 µM; MIC Escherichia coli 8739 [5, 10]: 0.84 to 1.68 µM; MIC Salmonella typhimurium 14028 [6, 10]: 0.84 µM; MIC Pseudomonas aeruginosa 9027 [7, 10]: 1.68 µM; antibacterial activity in Gram positive bacteria (Gram positive bacteria): does not show activity against Gram positive bacteria"
